We go through 58 molecules from patent US10364226B2, “Pyridazinone compounds and uses thereof” (priority 2013, dated 2019).

Molecules are shown by their SMILES.

The test system of assay [1] is Influenza strain A549 A/WSN/33 (H1N1). Nature of the assay: Influenza Antiviral Assay. The class given is cell-based, Influenza A virus. To be noted: Influenza A virus, A549, 20 h, neuraminidase fluorescence readout, read-out: % Inhibition.
A further assay concerns the target EN PA (Influenza A virus, UniProt P15659). In words: EN PA FRET Inhibition Assay. The class given is biochemical. To be noted: read-out: Potency.

As to `O=C(NC1CCCCC1)c1nn(CC2(c3cccc(C(F)(F)F)c3)CCCC2)cc(O)c1=O` [Compound 516], the EC50 in assay [1] was below 20 µM. Further, at EN PA, the IC50 was in the range of 100 to 1000 nM.
As to `O=C(Nc1ccccc1)c1nn(CC2(c3cccc(C(F)(F)F)c3)CCCC2)cc(O)c1=O` [Compound 517], the EC50 in assay [1] is below 20 µM. Besides, the IC50 at EN PA was 100 to 1000 nM.
For `CNC(=O)c1nn(-c2ccccc2-c2ccccc2-c2ccccc2)cc(O)c1=O` [Compound 518], in that order: below 20 µM and 100 to 1000 nM.
With `CNC(=O)c1nn(-c2ccccc2-c2ccccc2C(C)C)cc(O)c1=O` [Compound 519], the EC50 in assay [1] lay in the range of 20 to 100 µM. On EN PA, the IC50 was 100 to 1000 nM.
On to `O=C(NCc1ccc(Cl)cc1)c1nn(CC2(c3cccc(C(F)(F)F)c3)CCCC2)cc(O)c1=O` [Compound 523], for which, in assay [1], the EC50 is below 20 µM. Besides, the IC50 at EN PA was in the range of 100 to 1000 nM.
For `Cc1ccc(CNC(=O)c2nn(CC3(c4cccc(C(F)(F)F)c4)CCCC3)cc(O)c2=O)cc1` [Compound 524], in that order: below 20 µM and 100 to 1000 nM.
Regarding `COc1ccc(CNC(=O)c2nn(CC3(c4cccc(C(F)(F)F)c4)CCCC3)cc(O)c2=O)cc1` [Compound 525], the EC50 in assay [1] was below 20 µM. The IC50 at EN PA lay in the range of 100 to 1000 nM.
The corresponding values for `NC(=O)c1nn(CC2(c3cccc(C(F)(F)F)c3)CCCC2)cc(O)c1=O` [Compound 602] are below 20 µM and 100 to 1000 nM.
Consider `CNC(=O)c1nn(-c2ccccc2S(=O)(=O)c2ccccc2)cc(O)c1=O` [Compound 603], for which the EC50 in assay [1] was above 100 µM. The IC50 at EN PA is at least 1000 nM.
Take `CNC(=O)c1nn(CCc2ccccc2OC)cc(O)c1=O` [Compound 604]: the EC50 in assay [1] was above 100 µM. In addition, at EN PA, the IC50 is at least 1000 nM.
As to `O=C(NCc1ccccc1)c1nn(-c2ccccc2S(=O)(=O)c2ccccc2)cc(O)c1=O` [Compound 605], in assay [1], the EC50 fell in the range of 20 to 100 µM. On EN PA, the IC50 was in the range of 100 to 1000 nM.
For `CNC(=O)c1nn(CCC2CCCCC2)cc(O)c1=O` [Compound 606], in that order: 20 to 100 µM and at least 1000 nM.
On to `CNC(=O)c1nn(CC(C)(C)c2ccc(C)cc2)cc(O)c1=O` [Compound 607], for which the EC50 in assay [1] was below 20 µM. Besides, the IC50 on EN PA was in the range of 100 to 1000 nM.
For `CNC(=O)c1nn(CC2(n3ccc4cccnc43)CCCC2)cc(O)c1=O` [Compound 609], in that order: below 20 µM and below 100 nM.
For `CNC(=O)c1nn(-c2ccccc2-c2ccccc2OC2CCCC2)cc(O)c1=O` [Compound 610], the EC50 in assay [1] lay in the range of 20 to 100 µM. Moreover, on EN PA, the IC50 is 100 to 1000 nM.
For the molecule `CNC(=O)c1nn(-c2ccccc2-c2cccc(OC)c2)cc(O)c1=O` [Compound 611], the EC50 in assay [1] was above 100 µM. For the same molecule, the IC50 on EN PA is at least 1000 nM.
Turning to `CNC(=O)c1nn(-c2ccccc2-c2cc(OC)ccc2Cl)cc(O)c1=O` [Compound 612], in assay [1], the EC50 was in the range of 20 to 100 µM. The IC50 on EN PA was at least 1000 nM.
With `CNC(=O)c1nn(-c2ccccc2-c2ccc3[nH]ccc3c2)cc(O)c1=O` [Compound 613], in assay [1], the EC50 is above 100 µM. Also, the IC50 on EN PA is at least 1000 nM.
`CNC(=O)c1nn(CCc2cccc3ccccc23)cc(O)c1=O` [Compound 614]: in assay [1], the EC50 was in the range of 20 to 100 µM. The IC50 at EN PA lay within 100 to 1000 nM.
Turning to `CNC(=O)c1nn(CC2(c3cccc(C(F)(F)F)c3)CC2)cc(O)c1=O` [Compound 621], in assay [1], the EC50 was below 20 µM. Besides, the IC50 on EN PA fell in the range of 100 to 1000 nM.
The corresponding values for `CNC(=O)c1nn(CC2(n3cc(C)c4cccnc43)CCCC2)cc(O)c1=O` [Compound 622] are below 20 µM and 100 to 1000 nM.
For `COc1cccc(CNC(=O)c2nn(CC3(c4cccc(C(F)(F)F)c4)CCCC3)cc(O)c2=O)c1` [Compound 624], in that order: below 20 µM and 100 to 1000 nM.
The corresponding values for `O=C(NCc1ccc2c(c1)OCO2)c1nn(CC2(c3cccc(C(F)(F)F)c3)CCCC2)cc(O)c1=O` [Compound 625] are below 20 µM and 100 to 1000 nM.
Take `NC(=O)c1nn(CC2(c3cccc(C(F)(F)F)c3)CC2)cc(O)c1=O` [Compound 626]: the EC50 in assay [1] was 20 to 100 µM. Also, the IC50 at EN PA fell in the range of 100 to 1000 nM.
`O=C(Nc1ccccc1)c1nn(CC2(c3ccccc3)CCCC2)cc(O)c1=O` [Compound 639]: the EC50 in assay [1] was 20 to 100 µM. On EN PA, the IC50 fell in the range of 100 to 1000 nM.
For `CNC(=O)c1nn(-c2ccccc2S(=O)(=O)c2cccc(Cl)c2)cc(O)c1=O` [Compound 644], the EC50 in assay [1] is above 100 µM. Also, the IC50 at EN PA is 100 to 1000 nM.
The corresponding values for `CNC(=O)c1nn(CC(C)(C)c2cccc(C(F)(F)F)c2)cc(O)c1=O` [Compound 645] are below 20 µM and below 100 nM.
For `Cn1cc(CNC(=O)c2nn(CC3(c4cccc(C(F)(F)F)c4)CCCC3)cc(O)c2=O)cn1` [Compound 646], in that order: below 20 µM and below 100 nM.
With `Cc1cc(CNC(=O)c2nn(CC3(c4cccc(C(F)(F)F)c4)CCCC3)cc(O)c2=O)[nH]n1` [Compound 648], the EC50 in assay [1] was below 20 µM. Besides, the IC50 at EN PA was below 100 nM.
Take `O=C(NCc1cnn(-c2ccc(F)cc2)c1)c1nn(CC2(c3cccc(C(F)(F)F)c3)CCCC2)cc(O)c1=O` [Compound 649]: the EC50 in assay [1] is below 20 µM. For the same molecule, the IC50 on EN PA was below 100 nM.
Take `CCn1cc(CNC(=O)c2nn(CC3(c4cccc(C(F)(F)F)c4)CCCC3)cc(O)c2=O)cn1` [Compound 650]: the EC50 in assay [1] was below 20 µM. In addition, at EN PA, the IC50 is below 100 nM.
In the case of `CNC(=O)c1nn(Cc2ccccc2-c2ccccc2)cc(O)c1=O` [Compound 654], the EC50 in assay [1] was above 100 µM. Also, on EN PA, the IC50 was 100 to 1000 nM.
`Cc1ccc(C2(Cn3cc(O)c(=O)c(C(=O)O)n3)CC2)cc1` [Compound 655]: the EC50 in assay [1] was above 100 µM. At EN PA, the IC50 is below 100 nM.
Consider `CNC(=O)c1nn(CC2(c3ccc(C)cc3)CC2)cc(O)c1=O` [Compound 656], for which the EC50 in assay [1] was above 100 µM. The IC50 on EN PA was 100 to 1000 nM.
The corresponding values for `CNC(=O)c1nn(CC(c2ccccc2)C2CCCC2)cc(O)c1=O` (centres unmarked) [Compound 658] are above 100 µM and 100 to 1000 nM.
As for `CNC(=O)c1nn(CC(c2ccccc2)C2CCCCC2)cc(O)c1=O` (centres unmarked) [Compound 659], the EC50 in assay [1] was above 100 µM. In addition, the IC50 on EN PA was in the range of 100 to 1000 nM.
`CNC(=O)c1nn(CC(c2ccccc2)c2ccccc2)cc(O)c1=O` [Compound 660]: the EC50 in assay [1] was above 100 µM. On EN PA, the IC50 is 100 to 1000 nM.
Regarding `Cc1cn(C2(Cn3cc(O)c(=O)c(C(=O)NC4CC4)n3)CCCC2)c2ncccc12` [Compound 661], in assay [1], the EC50 was below 20 µM. At EN PA, the IC50 is below 100 nM.
In the case of `CNC(=O)c1nn(CC2(n3cc(C)c4cccnc43)CCCC2)cc(OC(C)=O)c1=O` [Compound 662], in assay [1], the EC50 is below 20 µM. The IC50 on EN PA is below 100 nM.
`Cc1csc(CNC(=O)c2nn(CC3(c4cccc(C(F)(F)F)c4)CCCC3)cc(O)c2=O)c1` [Compound 663]: the EC50 in assay [1] is above 100 µM. The IC50 on EN PA lay in the range of 100 to 1000 nM.
For `O=C(NCc1cccnc1)c1nn(CC2(c3ccccc3)CCCC2)cc(O)c1=O` [Compound 664], in that order: above 100 µM and 100 to 1000 nM.
As to `CNC(=O)c1nn(CC2(c3cccc(C(C)C)c3)CCCC2)cc(O)c1=O` [Compound 665], the EC50 in assay [1] is below 20 µM. Also, the IC50 at EN PA is below 100 nM.
The corresponding values for `CNC(=O)c1nn(CC2(c3cccc(Br)c3)CCCC2)cc(O)c1=O` [Compound 666] are below 20 µM and below 100 nM.
`O=C(NCc1ccc2[nH]ncc2c1)c1nn(CC2(c3cccc(C(F)(F)F)c3)CCCC2)cc(O)c1=O` [Compound 669]: the EC50 in assay [1] was above 100 µM. In addition, the IC50 on EN PA is below 100 nM.
For `CNC(=O)c1nn(CC2c3ccccc3CCc3ccccc32)cc(O)c1=O` [Compound 670], in that order: above 100 µM and 100 to 1000 nM.
Take `CNC(=O)c1nn(CC2(n3cc(-c4ccccc4)c4cccnc43)CCCC2)cc(O)c1=O` [Compound 671]: in assay [1], the EC50 is below 20 µM. For the same molecule, the IC50 on EN PA lay within 100 to 1000 nM.
Turning to `CNC(=O)c1nn(CC2(c3cccc(-c4ccccc4)c3)CCCC2)cc(O)c1=O` [Compound 674], the EC50 in assay [1] is below 20 µM. Further, the IC50 at EN PA is below 100 nM.
For `O=C(NC1CC1)c1nn(CC2(c3ccccc3)CCCC2)cc(O)c1=O` [Compound 676], in that order: below 20 µM and below 100 nM.
For `O=C(NCC1CC1)c1nn(CC2(c3ccccc3)CCCC2)cc(O)c1=O` [Compound 677], in assay [1], the EC50 is below 20 µM. Also, the IC50 on EN PA was below 100 nM.
For `CNC(=O)c1nn(CC2(n3cc(C)c4cccnc43)CCCC2)cc(OC(=O)C(C)C)c1=O` [Compound 678], in that order: below 20 µM and below 100 nM.
Consider `CNC(=O)c1nn(CC2(n3cc(C)c4cccnc43)CCCC2)cc(OC(=O)C(C)(C)C)c1=O` [Compound 679], for which the EC50 in assay [1] was below 20 µM. Also, the IC50 at EN PA is below 100 nM.
For the molecule `CNC(=O)c1nn(CC2(n3cc(Br)c4cccnc43)CCCC2)cc(O)c1=O` [Compound 680], in assay [1], the EC50 was below 20 µM. Besides, on EN PA, the IC50 was below 100 nM.
The corresponding values for `CNC(=O)c1nn(CC2(n3cc(C(F)(F)F)c4cccnc43)CCCC2)cc(O)c1=O` [Compound 681] are below 20 µM and below 100 nM.
Turning to `O=C(NC1CC1)c1nn(CC2(n3cc(C(F)(F)F)c4cccnc43)CCCC2)cc(O)c1=O` [Compound 682], the EC50 in assay [1] was below 20 µM. Also, the IC50 at EN PA is below 100 nM.
For `O=C(O)c1nn(CC2(c3cccc(Br)c3)CCCC2)cc(O)c1=O` [Compound 683], the EC50 in assay [1] is above 100 µM. Moreover, at EN PA, the IC50 was below 100 nM.
Take `CNC(=O)c1nn(CC2(c3ccc(C(F)(F)F)cc3)CCCC2)cc(O)c1=O` [Compound 685]: the EC50 in assay [1] is below 20 µM. For the same molecule, the IC50 at EN PA was below 100 nM.
Turning to `CNC(=O)c1nn(CC2(c3ccc(-c4ccccc4)cc3)CCCC2)cc(O)c1=O` [Compound 686], the EC50 in assay [1] was below 20 µM. For the same molecule, the IC50 on EN PA is 100 to 1000 nM.
As for `CNC(=O)c1nn(CC2(c3ccc(C(C)C)cc3)CCCC2)cc(O)c1=O` [Compound 687], the EC50 in assay [1] was below 20 µM. The IC50 at EN PA was below 100 nM.
